In patent US7141661B2, “Non-steroidal anti-inflammatory drug activated gene with anti-tumorigenic properties” (The United States of America as represented by the …, priority 2000, dated 2006):

Assays:
Assay type in all cases: cell-based, human
[1] = tested on: NAG-1; assay: Northern blot analysis of NAG-1 mRNA expression in HCT-116 cells; settings: for NAG-1 Induction (mRNA) Fold: HCT-116, 24 hr in absence of serum, relative NAG-1 mRNA over vehicle control (1.0), tested over the concentration range listed; for NAG-1 expression induction: HCT-116, at any concentration tested
Method: Upon reaching 60–80% confluence in 10 cm plates, the cells were treated at indicated concentrations and times with either different NSAIDs or PPARγ ligands in the absence of serum. Total RNAs were isolated using TRIzol reagent (Life Technologies) according to the manufacturer's protocol. For Northern blot analysis, […] of total RNA was denatured at 55° C. for 15 min and separated in a 1.2% agarose gel containing 2.2 M formaldehyde, and transferred to Hybond-N membrane ([…]). After fixing the membrane by UV, blots were prehybridized in hybridization solution (Rapid-hyb buffer, […]) for 1 hr at 65° C. followed by hybridization with cDNA labeled with [α-^32P]dCTP by random primer extension (DECAprimeII kit, Ambion). The probes used were either full-length NAG-1 fragment or PTGFB clone (generously provided by Dr. Bento-Soar of the University of Iowa). After 4 hr incubation at 65° C., the blots were washed once with 2×SSC/0.1% SDS at RT and twice with 0.1×SSC/0.1% SDS at 65° C. Messenger RNA abundance Was estimated by intensities of the hybridization bands of autoradiographs using Scion Image (Scion). Equivalent loading of RNA samples was confirmed by hybridizing the same blot with a ^32P-labeled b-actin probe which recognizes RNA of approximately 2 kb.
To determine whether other NSAIDs increased apoptosis and NAG-1 expression, tests were conducted to determine whether variants of NSAIDs induced NAG-1 gene expression and NSAID-induced apoptosis. Aspirin, ibuprofen, indomethacin, and sulindac sulfide were selected since they are known COX inhibitors. […] HCT-116 cells were treated with different NSAIDs (vehicle, 0.2% DMSO; aspirin, 10 mM; ibuprofen, 1 mM; sodium salicylate, 5 mM; sulindac sulfide, 50 μM; sulindac, 40 μM; acetaminophen, 100 μM) for 24 hr in the absence of serum. Northern analysis was performed using NAG-1 and β-actin as probes. Total RNAs were isolated from NSAID-treated HCT-116 cells after 24 hr treatment and Northern blot was performed using NAG-1 cDNA as a probe (data not shown). […] Each of the doses were as follows: aspirin (1, 5, 10 mM); ibuprofen (100, 500, 1000 μM); salicylate (1, 2.5, 5 mM); sulindac sulfide (1, 10, 50 μM); sulindac (10, 20, 40 μM); acetaminophen (10, 50, 100 μM). After 48 hr treatment with NSAIDs in the presence of serum, cells were harvested and assayed as described in FIG. 1C. Apoptosis detected by PI staining was measured by FACS, as known in the art (FIG. 2A; HCT-116 cells were treated with different NSAIDs (vehicle, 0.2% DMSO; Aspirin, 10 mM; Ibuprofen, 1 mM; Sodium Salicylate, 5 mM; Sulindac Sulfide, 50 μM; Sulindac, 40 μM; Acetaminophen, 100 μM) for 24 hr in the absence of serum. Northern analysis was performed using NAG-1 and β-actin as probes. The open bars represent the relative expression of NAG-1 mRNA over the control (vehicle). The hatched bars represent the relative apoptosis ratio over vehicle treatment by PI staining methods. N=3±S.D.).
(§1) In the Table below, HCT-116 cells were treated with different NSAIDs (vehicle, 0.2% DMSO) for 24 hr in the absence of serum. Northern analysis was performed using NAG-1 and β-actin as probes. The data represent relative expression of NAG-1 mRNA over the control (1.0). Each NSAID was tested at 3 different concentrations and maximally effective concentration used for apoptosis determination. Apoptosis ratio by PI staining was measured by FACS. After 48 hr treatment with NSAIDs in the presence of serum, cells were harvested and assayed. The data represent relative apoptosis ratio over vehicle treatment by PI staining methods. TACS™ Annexin V-FITC kit was also used to confirm apoptosis.

[2] = tested on: HCT-116 cells; assay: Apoptosis and cell cycle by PI staining / FACS in HCT-116 cells; settings: for Apoptosis (PI Staining), relative apoptosis ratio over vehicle: HCT-116, 48 hr in presence of serum, maximally effective concentration, FACS
Method: To determine whether NAG-1 gene expression is associated with NSAID-induced apoptosis or altered cell cycle kinetics, flow cytometric analysis of the distribution of cells at various stages of the cell cycle was performed. Apoptosis and cell cycle kinetics of INDO-treated HCT-116 cells were measured at different time points. HCT-116 cells were treated with INDO, stained with PI, and analyzed by flow cytometry. Seven thousand five hundred cells were examined by flow cytometry by gating on an area versus width dot plot to exclude cell debris and cell aggregates. Apoptosis is represented by the fold increase in sub-G1 population over 0 hr treatment.
The DNA content for NSAIDs, PPARγ ligand, and vehicle treated HCT-116 cells was determined by FACS. Cells were plated at a density of 4×10^5 cells/well in 2 ml of medium in 6 well plates, incubated for 16 h, and then treated with NSAIDs or TGZ in the presence of serum. After treatment, the cells were harvested, washed with PBS, fixed by the slow addition of cold 70% ethanol to a total of 1 ml, and stored overnight at 4° C. The fixed cells were pelleted, washed once with PBS, and stained in 1 ml of 20 μg/ml of propidium iodide (PI), 1 mg/ml RNase in PBS for 20 min. Seven thousand five hundred cells were examined by flow cytometry using Becton Dickinson FACSort equipped with CellQuest software, by gating on an area versus width dot plot to exclude cell debris and cell aggregates. Each cell cycle distribution was analyzed by the McCycle program using one cell cycle parameter. Apoptosis was measured based on the level of sub-diploid DNA contained in cells following treatment with NSAIDs or TGZ using CellQuest software.
as §1, with “Northern” for “In the Table below, HCT-116 cells were treated with different NSAIDs (vehicle, 0.2% DMSO) for 24 hr in the absence of serum. Northern”, “After 48 hr treatment with NSAIDs in the presence of serum, cells were harvested and assayed.” left out

[3] = tested on: NAG-1 promoter; assay: NAG-1 promoter (pNAG2021) luciferase reporter assay in transiently transfected HCT-116 cells; settings: pNAG2021 in HCT-116, 24 hr; TGZ 10 μM, sulindac 40 μM, acetaminophen 100 μM, other NSAIDs; versus vehicle
[4] = tested on: NAG-1; assay: Northern blot NAG-1 induction in A549 lung carcinoma cells; settings: 10 mM, 24 hr
Method: (§2) NSAID-induced apoptosis is not restricted to colorectal cells, as NSAIDs can induce apoptosis in breast, lung, leukemia, and prostate cell lines. To test for the induction of NAG-1 by NSAIDs in different cell lines, A549 lung epithelial cells, MCF-7 mammary cells, PC-3 prostate cancer cells, and U937 leukemia cell lines were treated with several concentrations of INDO and aspirin. Then, as described above, Northern blot analysis was performed. […] Quiescent cells were grown for 24 hr in the presence of indicated NSAIDs. Total RNAs were isolated and subjected to Northern analysis using NAG-1 and β-actin as probes. The blots contained 10 μg of total RNA from INDO- or Aspirin (Asp)-treated cells with indicated doses. “V” indicates total RNAs from vehicle (0.2% DMSO) treated cells. The results shown are representative of those obtained in two experiments.

[5] = tested on: NAG-1; assay: Northern blot NAG-1 induction in MCF-7 breast carcinoma cells; settings: MCF-7 cells, 10 mM, 24 hr
Method: as §2

[6] = tested on: NAG-1; assay: Northern blot NAG-1 induction in U937 leukemia cells; settings: 24 hr
Method: as §2

[7] = tested on: NAG-1; assay: Northern blot NAG-1 induction in PC-3 prostate cells; settings: PC-3 cells, 10 mM, 24 hr
Method: as §2

[8] = tested on: NAG-1; assay: Western blot analysis of secreted NAG-1 protein from HCT-116 cells; settings: HCT-116, 5 μM TGZ
Method: The level of secreted NAG-1 was evaluated using Western blot analysis with anti-human-NAG-1 antibody (generously provided by Dr. Paralkar of Pfizer). HCT-116 cells were grown to 60–80% confluency in 10 cm plates followed by 48 hr treatment in the absence of serum with either NSAIDs or TGZ. The media were harvested and concentrated approximately 15-fold using Centriprep 10 concentrators (Amicon). Proteins (30 μg) were separated by 15% SDS-PAGE and transferred for 1 hr onto nitrocellulose membrane (Schleicher & Schuell). The blots were blocked for 1 hr with 5% skim milk in TBS/Tween 0.05%, and probed with anti-NAG-1 antibody (1 μg/ml in TBS-0.2%-Tween20) at […] overnight. After washing, the blots were treated with horseradish peroxidase-conjugated secondary antibody for 1 hr and washed several times. The signal was detected by enhanced chemiluminescence system (AMERSHAM) and autoradiography.
HCT-116 cells were treated with 100 μM INDO in the absence of serum for various times. In FIG. 1B, left panel. 10 μg of total RNA was loaded in each lane. Northern blotting was performed using the NAG-1 probe and re-probed with β-actin probe. The hybridization signals were quantitated using Scion Image software (Scion). Levels of the 1.3 kb NAG-1 transcript were normalized to the levels of β-actin transcripts and represented relative to 0 hr treatment. […] The signal was detected by ECL reagent (AMERSHAM).

| Structure (SMILES) | NAG-1 Induction (mRNA) Fold [1] [Fold] | Apoptosis (PI Staining), relative apoptosis ratio over vehicle [2] | also measured |
| --- | --- | --- | --- |
| CCCCC/C=C/C=C1/C(=O)C=C[C@@H]1C/C=C\CCCC(=O)O [15d-PGJ2, 15-deoxy-Δ^12,14-prostaglandin J2] | – | – | Induction of NAG-1 gene expression ([1]; HCT-116, 1 μM): 3 fold |
| CC(=O)Nc1ccc(O)cc1 [Acetaminophen] | 0.9 | 0.9 ± 0.153 | NAG-1 expression induction [1]: did not induce NAG-1 expression; Induction of luciferase reporter activity (2021 bp NAG-1 promoter) [3]: did not increase luciferase activity |
| CC(=O)Oc1ccccc1C(=O)O [Aspirin] | 3.5 | 3.5 ± 0.451 | NAG-1 induction [4]: high NAG-1 induction; NAG-1 induction [5]: high NAG-1 induction; NAG-1 expression ([6]; 5 mM): significantly increased; NAG-1 induction ([6]; 10 mM): high NAG-1 induction; NAG-1 induction [7]: high NAG-1 induction |
| Cc1ccc(-c2cc(C(F)(F)F)nn2-c2ccc(S(N)(=O)=O)cc2)cc1 [Celecoxib] | 1.0 | 0.722 ± 0.098 | – |
| CC1(C)OC(=O)C(c2cccc(F)c2)=C1c1ccc(S(C)(=O)=O)cc1 [DFU] | 1.0 | 0.54 ± 0.091 | – |
| O=C(O)Cc1ccccc1Nc1c(Cl)cccc1Cl [Diclofenac] | 3.7 | 4.0 ± 0.315 | – |
| CC(C)Cc1ccc(C(C)C(=O)O)cc1 (stereo not shown) [Ibuprofen] | 4.5 | 4.3 ± 0.666 | – |
| CS(=O)(=O)Nc1ccc([N+](=O)[O-])cc1OC1CCCCC1 [NS-398] | 0.9 | 1.029 ± 0.109 | – |
| CN1C(C(=O)Nc2ccccn2)=C(O)c2ccccc2S1(=O)=O [Piroxicam] | 2.5 | 1.9 ± 0.145 | – |
| O=C([O-])c1ccccc1O.[Na+] [Sodium Salicylate] | 3.0 | 1.8 ± 0.252 | – |
| CSc1ccc(/C=C2/C(C)=C(CC(=O)O)c3cc(F)ccc32)cc1 [Sulindac Sulfide] | 4.6 | 4.3 ± 0.737 | – |
| CC1=C(CC(=O)O)c2cc(F)ccc2/C1=C\c1ccc(S(C)(=O)=O)cc1 [Sulindac Sulfone] | 1.3 | 1.6 ± 0.043 | – |
| CC1=C(CC(=O)O)c2cc(F)ccc2/C1=C\c1ccc([S+](C)[O-])cc1 (stereo not shown) [Sulmdac, Sulindac] | 1.5 | 1.1 ± 0.173 | NAG-1 expression induction [1]: did not induce NAG-1 expression; Induction of luciferase reporter activity (2021 bp NAG-1 promoter) [3]: did not increase luciferase activity |
| Cc1c(C)c2c(c(C)c1O)CCC(C)(COc1ccc(CC3SC(=O)NC3=O)cc1)O2 (stereo not shown) [TGZ, Troglitazone] | – | – | Induction of NAG-1 gene expression ([1]; HCT-116, 5 μM): 3 fold; Earliest time at which increase in NAG-1 mRNA was observed ([1]; HCT-116, 5 μM TGZ): 3 h; Time at which increase in NAG-1 protein was observed [8]: 6 h; Earliest time at which apoptosis was observed ([2]; HCT-116, presence of serum, TGZ 5 μM): 12 h; Time point at which G1 arrest was seen ([2]; HCT-116, TGZ 5 μM): 12 h; Induction of luciferase reporter activity (2021 bp NAG-1 promoter) [3]: 3 fold |
